According to patent US20060148760A1, “Method for the sysnthesis of compounds of formula I and their uses thereof” (TransTech Pharma, priority 2000, published 2006):
Counter-ions that a name gives are not always drawn.

Tested on: S-100b/RAGE interaction in Glioma cells
Assay: Functional assay: inhibition of NF-κB in Glioma cells (S-100b/RAGE interaction)
Format: cell-based
Details: Glioma cell

SMILES: CCCCOc1cc(C(=O)OCCN(CC)CC)ccc1NC(=O)[C@H](N)Cc1ccc2ccccc2c1 [Example 1, (R)-3-(2-Naphthyl)-2-aminopropionic Acid 4-Diethylaminoethoxycarbonyl-2-butoxyaniline Amide Dihydrochloride]
- IC50: 3.3 µM
